Test [1] has as its target Recombinant human MALT-1 (amino acids 340-824) (Homo sapiens (Human), UniProt Q9UDY8). Nature of the test: MALT-1 inhibition assay (fluorogenic substrate Ac-LRSR-Rh110-DP). The test is classed as biochemical. The note with it: recombinant human MALT-1, substrate Ac-LRSR-Rh110-DP. The essentials: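 MALT-1 at 3 nM final was reacted with 10 μM Ac-LRSR-Rh110-DP, with substrate addition starting the reaction. Incubation ran 60 minutes at 25° C in the dark. Percent inhibition from fluorescence across doses was fitted to a 4-parameter logistic to give IC50.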

The test system of test [2] is IL-2 secretion by human effector memory T cells (TEM). Nature of the test: Effector memory T cells IL-2 release assay. The class given is cell-based. The note with it: T-cell; human CD4+ effector memory T cells, CD3/CD28 bead stimulation, 24 h; read-out: CD4TC IL2 IC50. The essentials:
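Human CD4+ effector memory T cells from healthy-donor buffy coats were stimulated with anti-CD3/CD28 Dynabeads and exposed to 10 semi-log compound doses (0.1% DMSO) for 24 h at 37 °C. Supernatant IL-2 was measured by HTRF, and IC50 came from a 4-parameter logistic fit to maximal IL-2. Viability was checked by flow cytometry.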

These results are taken from patent US20250051327A1, “MALT-1 MODULATORS” (EXSCIENTIA AI LIMITED, priority 2020, published 2025).

Chain of Recombinant human MALT-1 (amino acids 340-824) (Q9UDY8 340-824): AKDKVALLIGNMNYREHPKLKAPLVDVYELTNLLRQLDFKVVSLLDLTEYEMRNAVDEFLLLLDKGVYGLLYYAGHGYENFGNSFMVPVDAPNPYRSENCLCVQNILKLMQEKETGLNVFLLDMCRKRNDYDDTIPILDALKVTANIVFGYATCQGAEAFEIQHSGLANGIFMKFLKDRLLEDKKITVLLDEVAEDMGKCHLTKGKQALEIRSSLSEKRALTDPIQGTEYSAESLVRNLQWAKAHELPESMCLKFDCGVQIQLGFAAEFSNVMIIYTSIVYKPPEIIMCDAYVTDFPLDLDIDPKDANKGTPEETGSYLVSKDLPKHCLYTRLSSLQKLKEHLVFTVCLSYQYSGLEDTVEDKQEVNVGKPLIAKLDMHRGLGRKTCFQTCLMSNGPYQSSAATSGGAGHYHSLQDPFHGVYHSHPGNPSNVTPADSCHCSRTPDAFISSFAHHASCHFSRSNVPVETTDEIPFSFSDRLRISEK

For `CN(C(=O)C1CC1)[C@@H](c1ccc(N2CCCc3c2cnc2cc(Cl)nn32)cc1)C(F)(F)F` [CPD0019354, N-[(1S)-1-(4-{4-chloro-2,3,7,10-tetraazatricyclo[7.4.0.0^2,6]trideca-1(9),3,5,7-tetraen-10-yl}phenyl)-2,2,2-trifluoroethyl]-N-methylcyclopropanecarboxamide], the IC50 in test [1] amounted to 164 nM; in test [2], 83 nM.

Regarding `C[C@H]1CCN(c2ccc([C@H](N(C)C(=O)[C@H]3CC[S@](=N)(=O)CC3)C(F)(F)F)cc2)c2cnc3cc(Cl)nn3c21` (relative stereo) [CPD0073195, (1rel-R,4rel-R)-N-[(1S)-1-{4-[(13rel-S)-4-chloro-13-methyl-2,3,7,10-tetraazatricyclo[7.4.0.0^2,6]trideca-1(9),3,5,7-tetraen-10-yl]phenyl}-2,2,2-trifluoroethyl]-1-imino-N-methyl-1-oxo-1λ^6-thiane-4-carboxamide], the values for the IC50 in test [1] and in test [2] were 22 nM and 51 nM, respectively.

As to `C[C@@H]1CCN(c2ccc([C@H](N(C)C(=O)[C@@H]3CCC(=O)NC3)C(F)(F)F)cc2)c2cnc3cc(Cl)nn3c21` (relative stereo) [CPD0074561, (3rel-R)-N-[(1S)-1-[4-[(13rel-R)-4-chloro-13-methyl-2,3,7,10-tetrazatricyclo[7.4.0.0^2,6]trideca-1(9),3,5,7-tetraen-10-yl]phenyl]-2,2,2-trifluoro-ethyl]-N-methyl-6-oxo-piperidine-3-carboxamide], the IC50 was 29 nM in test [1] and 92 nM in test [2].

`COC[C@]1(C)CCN(c2ccc([C@H](N(C)C(=O)[C@H]3CC[S@](=N)(=O)CC3)C(F)(F)F)cc2)c2cnc3cc(Cl)nn3c21` (relative stereo) [CPD0073132, (1rel-r,4rel-r)-N-[(1S)-1-[4-[(13rel-R)-4-chloro-13-(methoxymethyl)-13-methyl-2,3,7,10-tetrazatricyclo[7.4.0.0^2,6]trideca-1(9),3,5,7-tetraen-10-yl]phenyl]-2,2,2-trifluoro-ethyl]-1-imino-N-methyl-1-oxo-1λ^6-thiane-4-carboxamide]: the figures for the IC50 in test [1] and in test [2] were 101 nM and 150 nM, respectively.

As to `CN(C(=O)C[C@@H]1CCS(=O)(=O)C1)[C@@H](c1ccc(N2CCCc3c2cnc2cc(Cl)nn32)cc1)C(F)(F)F` (relative stereo) [CPD0072800, N-[(1S)-1-(4-{4-chloro-2,3,7,10-tetraazatricyclo[7.4.0.0^2,6]trideca-1(9),3,5,7-tetraen-10-yl}phenyl)-2,2,2-trifluoroethyl]-2-[(3rel-R)-1,1-dioxo-1λ^6-thiolan-3-yl]-N-methylacetamide], the IC50 in test [1] turned out to be 92 nM; in test [2] it was 187 nM.

On to `CN(C(=O)CN1CCOCC1)[C@@H](c1ccc(N2CCCc3c2cnc2cc(Cl)nn32)cc1)C(F)(F)F` [CPD0073243, N-[(1S)-1-(4-{4-chloro-2,3,7,10-tetraazatricyclo[7.4.0.0^2,6]trideca-1(9),3,5,7-tetraen-10-yl}phenyl)-2,2,2-trifluoroethyl]-N-methyl-2-(morpholin-4-yl)acetamide], for which the figures for the IC50 in test [1] and in test [2] were 273 nM and 315 nM, respectively.

`CN1C(=O)OC[C@@H]1C(=O)N(C)[C@@H](c1ccc(N2CCCc3c2cnc2cc(Cl)nn32)cc1)C(F)(F)F` (relative stereo) [CPD0073570, (4rel-R)-N-[(1S)-1-(4-{4-chloro-2,3,7,10-tetraazatricyclo[7.4.0.0^2,6]trideca-1(9),3,5,7-tetraen-10-yl}phenyl)-2,2,2-trifluoroethyl]-N,3-dimethyl-2-oxo-1,3-oxazolidine-4-carboxamide]: the IC50 in test [1] amounted to 62 nM; in test [2], 216 nM.

In the case of `CC(=O)N1CCC(C(=O)N(C)[C@@H](c2ccc(N3CC[C@@H](C)c4c3cnc3cc(Cl)nn43)cc2)C(F)(F)F)CC1` [CPD0074558], the values for the IC50 in test [1] and in test [2] were 74 nM and 67 nM, respectively.

As for `CN(C(=O)C1CCCO1)[C@@H](c1ccc(N2CCCc3c2cnc2cc(Cl)nn32)cc1)C(F)(F)F` (stereo partly drawn) [CPD0021570, N-[(1S)-1-(4-{4-chloro-2,3,7,10-tetraazatricyclo[7.4.0.0^2,6]trideca-1(9),3,5,7-tetraen-10-yl}phenyl)-2,2,2-trifluoroethyl]-N-methyloxolane-2-carboxamide], the IC50 in test [1] worked out at 147 nM; in test [2], 142 nM.

`CC(=O)N1CCC[C@@H](C(=O)N(C)[C@@H](c2ccc(N3CCCc4c3cnc3cc(Cl)nn43)cc2)C(F)(F)F)C1` (relative stereo) [CPD0073499, (3rel-R)-1-acetyl-N-[(1S)-1-(4-{4-chloro-2,3,7,10-tetraazatricyclo[7.4.0.0^2,6]trideca-1(9),3,5,7-tetraen-10-yl}phenyl)-2,2,2-trifluoroethyl]-N-methylpiperidine-3-carboxamide]: the IC50 in test [1] was 127 nM; in test [2], 175 nM.

Turning to `Cc1ncc(C(=O)N(C)[C@@H](c2ccc(N3CCCc4c3cnc3cc(Cl)nn43)cc2)C(F)(F)F)s1` [CPD0019348, N-[(1S)-1-(4-{4-chloro-2,3,7,10-tetraazatricyclo[7.4.0.0^2,6]trideca-1(9),3,5,7-tetraen-10-yl}phenyl)-2,2,2-trifluoroethyl]-N,2-dimethyl-1,3-thiazole-5-carboxamide], the half-inhibitory concentration (IC50) stood at 193 nM in test [1] and 157 nM in test [2].

Regarding `CN(C(=O)c1nn(C)cc1Cl)[C@@H](c1ccc(N2CCCc3c2cnc2cc(Cl)nn32)cc1)C(F)(F)F` [CPD0019352, 4-chloro-N-[(1S)-1-(4-{4-chloro-2,3,7,10-tetraazatricyclo[7.4.0.0^2,6]trideca-1(9),3,5,7-tetraen-10-yl}phenyl)-2,2,2-trifluoroethyl]-N,1-dimethyl-1H-pyrazole-3-carboxamide], the IC50 in test [1] was determined as 196 nM; in test [2] it was 417 nM.

On to `COC[C@@]1(C)CCN(c2ccc([C@H](N(C)C(=O)[C@H]3CC[S@](=N)(=O)CC3)C(F)(F)F)cc2)c2cnc3cc(Cl)nn3c21` (relative stereo) [CPD0073134, (1rel-r,4rel-r)-N-[(1S)-1-[4-[(13rel-S)-4-chloro-13-(methoxymethyl)-13-methyl-2,3,7,10-tetrazatricyclo[7.4.0.0^2,6]trideca-1(9),3,5,7-tetraen-10-yl]phenyl]-2,2,2-trifluoro-ethyl]-1-imino-N-methyl-1-oxo-1λ^6-thiane-4-carboxamide], for which the results for the IC50 in test [1] and in test [2] were 85 nM and 57 nM, respectively.

On to `Cc1scnc1C(=O)N(C)[C@@H](c1ccc(N2CCCc3c2cnc2cc(Cl)nn32)cc1)C(F)(F)F` [CPD0019353, N-[(1S)-1-(4-{4-chloro-2,3,7,10-tetraazatricyclo[7.4.0.0^2,6]trideca-1(9),3,5,7-tetraen-10-yl}phenyl)-2,2,2-trifluoroethyl]-N,5-dimethyl-1,3-thiazole-4-carboxamide], for which the results for the IC50 in test [1] and in test [2] were 582 nM and 271 nM, respectively.

For the molecule `CN1CC[C@H](C(=O)N(C)[C@@H](c2ccc(N3CCCc4c3cnc3cc(Cl)nn43)cc2)C(F)(F)F)CC1=O` (relative stereo) [CPD0073141, (4rel-S)-N-[(1S)-1-(4-{4-chloro-2,3,7,10-tetraazatricyclo[7.4.0.0^2,6]trideca-1(9),3,5,7-tetraen-10-yl}phenyl)-2,2,2-trifluoroethyl]-N,1-dimethyl-2-oxopiperidine-4-carboxamide], the half-maximal inhibitory concentration (IC50) in test [1] is 67 nM; in test [2], 197 nM.
